Patent US20100297194A1, “FORMULATION FOR ORAL ADMINISTRATION OF APOPTOSIS PROMOTER” (priority 2009, published 2010)
Like-named read-outs stand apart in the source and are kept apart here. One block for each molecule: values may come before it.

Legend:
[1] = oral bioavailability in a rat model; conditions: in vivo, in 90% phosphatidylcholine+medium chain triglycerides 53/29 and 10% ethanol
[2] = rat; 2 mg/ml solution in PEG-400/DMSO; cited from earlier work
[3] = solubility in lipid solvents (Example 1); type: physicochemical; conditions: ambient conditions;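 also: solubility in mg/g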
Experimental: Solubility of ABT-263 parent (free base, crystalline Form I) and ABT-263 bis-HCl salt was tested in a variety of lipid solvents and solvent mixtures in ambient conditions. “PE-91” is Phosal 53 MCT™+ethanol, 9:1 by volume. “LOT-343” is Labrafil M 1944 CS™+oleic acid+Tween 80™, 30:40:30 by weight.
In some cases, indicated in Table 4 by an asterisk (*), solubility was initially high but precipitation occurred upon standing.

[4] = drug solubility in ternary excipient systems (Example 2); type: physicochemical; parameters: key: ✓: vehicle miscible, or drug fully dissolved in vehicle; X: vehicle immiscible or miscible but turbid, or residual solids present (due to undissolved drug or precipitation); conditions: 10% salt, 20% free base, listed as ABT-263 free base
Text: Solvents evaluated included Labrafil M 1944 CS™, Imwitor 742™ oleic acid, Capmul PG-8™, Capmul PG-12™, Lauroglycol 90™ and Phosal 53 MCT™. Surfactants evaluated included Tween™ 80, Cremophor RH40™, Gelucire 44/14™ and Labrasol™.

[5] = monkey; similar solution in PEG-400/DMSO; cited from earlier work

bioavailability [1]: 3.3%
SMILES: CN(C)CC[C@H](CSc1ccccc1)Nc1ccc(S(=O)(=O)NC(=O)c2ccc(N3CCN(Cc4ccccc4-c4ccc(Cl)cc4)CC3)cc2)cc1[N+](=O)[O-] [ABT-737, N-(4-(4-((4′-chloro-(1,1′-biphenyl)-2-yl)methyl)piperazin-1-yl)benzoyl)-4-(((1R)-3-(dimethylamino)-1-((phenylsulfanyl)methyl)propyl)amino)-3-nitrobenzenesulfonamide]

Solubility ([3]; in Cremophor RH40): >226 mg/g
Solubility ([3]; in LOT-343 (Labrafil M 1944 CS+oleic acid+Tween 80 30:40:30 by weight)): >479 mg/g
Solubility ([3]; in Labrafil M 1944 CS, listed as ABT-263 parent): >265 mg/g
Solubility ([3]; in Labrafil M 2125 CS, listed as ABT-263 parent): >290 mg/g
Solubility ([3]; in Labrasol, listed as ABT-263 parent): >242 mg/g
Solubility ([3]; in Lipoid S75 MCT, listed as ABT-263 parent): 150 to 200 mg/g
Solubility ([3]; in Miglyol 810, listed as ABT-263 parent): <76 mg/g
Solubility ([3]; in PE-91 (Phosal 53 MCT+ethanol 9:1 by volume), listed as ABT-263 parent): >250 mg/g
Solubility ([3]; in PEG-400, listed as ABT-263 parent): >200 mg/g
Solubility ([3]; in Phosal 53 MCT): >300 mg/g
Solubility ([3]; in Tween 20, listed as ABT-263 parent): >256 mg/g
Solubility ([3]; in Tween 80, listed as ABT-263 parent): >256 mg/g
Solubility ([3]; in corn oil, listed as ABT-263 parent): <86 mg/g
Solubility ([3]; in oleic acid, listed as ABT-263 parent): >514 mg/g
Solubility ([3]; in poloxamer 124, listed as ABT-263 parent): >231 mg/g
Solubility ([3]; in sesame oil, listed as ABT-263 parent): <75 mg/g
ABT-263 solubility ([4]; ILC (Imwitor 742/Labrafil M 1944 CS/Cremophor RH40) 50:40:10 by weight): X
ABT-263 solubility ([4]; ILC (Imwitor 742/Labrafil M 1944 CS/Cremophor RH40) 60:30:10 by weight): X
ABT-263 solubility ([4]; ILL (Imwitor 742/Labrafil M 1944 CS/Labrasol) 40:40:20 by weight): X
ABT-263 solubility ([4]; ILL (Imwitor 742/Labrafil M 1944 CS/Labrasol) 50:30:20 by weight): X
ABT-263 solubility ([4]; ILL (Imwitor 742/Labrafil M 1944 CS/Labrasol) 50:40:10 by weight): X
ABT-263 solubility ([4]; ILL (Imwitor 742/Labrafil M 1944 CS/Labrasol) 60:30:10 by weight): X
ABT-263 solubility ([4]; LIT (Labrafil M 1944 CS/Imwitor 742/Tween 80) 30:40:30 by weight): X
ABT-263 solubility ([4]; LIT (Labrafil M 1944 CS/Imwitor 742/Tween 80) 40:30:30 by weight): X
ABT-263 solubility ([4]; LLL (Lauroglycol 90/Labrafil M 1944 CS/Labrasol) 50:40:10 by weight): X
ABT-263 solubility ([4]; LLL (Lauroglycol 90/Labrafil M 1944 CS/Labrasol) 60:30:10 by weight): X
SMILES: CC1(C)CCC(c2ccc(Cl)cc2)=C(CN2CCN(c3ccc(C(=O)NS(=O)(=O)c4ccc(N[C@H](CCN5CCOCC5)CSc5ccccc5)c(S(=O)(=O)C(F)(F)F)c4)cc3)CC2)C1 [ABT-263, N-(4-(4-((2-(4-chlorophenyl)-5,5-dimethyl-1-cyclohex-1-en-1-yl)methyl)piperazin-1-yl)benzoyl)-4-(((1R)-3-(morpholin-4-yl)-1-((phenylsulfanyl)methyl)propyl)amino)-3-((trffluoromethyl)sulfonyl)benzene-sulfonamide]
oral bioavailability [2]: around 20%
oral bioavailability [5]: around 20%
